Measurements from article PMC7408547, “Bivalent Inhibitor with Selectivity for Trimeric MMP-9 Amplifies Neutrophil Chemotaxis and Enables Functional Studies on MMP-9 Proteoforms” (Cells, 2020).
Values joined by “and” are separate entries in the source; they are usually repeats but may differ in a detail not shown here. Equal values may be shown once.

Experiments:
MMP-2 = biological target: T1, MMP-2 (Homo sapiens, UniProt P08253); experiment: MMP-2 OmniMMP peptide assay; assay type: biochemical; details: OmniMMP substrate peptide
T1 construct: purchased R & D systems; host or cells: CHO cells
T1 sequence (P08253 110-660): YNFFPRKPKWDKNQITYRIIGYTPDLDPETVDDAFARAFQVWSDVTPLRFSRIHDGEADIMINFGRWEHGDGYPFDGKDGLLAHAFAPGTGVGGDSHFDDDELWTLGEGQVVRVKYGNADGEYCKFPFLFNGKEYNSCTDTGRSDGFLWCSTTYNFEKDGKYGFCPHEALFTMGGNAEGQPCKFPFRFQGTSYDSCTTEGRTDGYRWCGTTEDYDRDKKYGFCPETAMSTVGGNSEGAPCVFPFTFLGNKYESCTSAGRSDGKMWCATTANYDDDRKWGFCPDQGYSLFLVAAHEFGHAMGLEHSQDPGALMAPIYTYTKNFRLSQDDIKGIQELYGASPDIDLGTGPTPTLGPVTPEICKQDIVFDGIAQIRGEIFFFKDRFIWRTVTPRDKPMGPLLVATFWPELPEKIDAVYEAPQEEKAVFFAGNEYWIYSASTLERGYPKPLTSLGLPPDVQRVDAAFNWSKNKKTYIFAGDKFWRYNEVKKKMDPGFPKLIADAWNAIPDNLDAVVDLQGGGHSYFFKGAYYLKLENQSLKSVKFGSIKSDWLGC
Experimental: Compounds 5 and 7 were synthesized as previously reported. Full-length human proMMP-9 was produced by recombinant expression in Sf9 insect cells and purified by gelatin-Sepharose chromatography as previously described. Stable full-length proMMP-9 monomers and trimers were separated by glycerol gradient ultracentrifugation as previously described. ProMMP-9 mixture and the separated monomers and trimers were activated by incubation with the catalytic domain of MMP-3 (cat. No. 444217, Merck Millipore, Darmstadt, Germany) as previously described. Activation of proMMP-9 was confirmed by a band shift of ±10 kDa, corresponding to the removal of the auto-inhibitory propeptide domain and by detection of gelatinolytic activity with a previously described gelatin degradation assay. […] ADAM17/TACE (Sf 21 (baculovirus)-derived, R & D systems, Minneapolis, MO, USA) was diluted and evaluated in 25 mM Tris, 2.5 μM ZnCl2, 0.005% Brij-35, pH 9.0. All stocks of the compounds were evaluated for the presence of endotoxin using the EndoZyme II assay (Hyglos bioMérieux, Bernried am Starnberger See, Germany). […]
To determine the inhibition of gelatinolytic activity, we used a previously optimized gelatin degradation assay. […] Proteolytic activity was determined by linear regression of the fluorescence curve and the percentage inhibition was calculated through comparison with the positive control (no inhibitors). […]

[1] = Ex vivo stability in mouse blood (remaining MMP-9 inhibitory activity); assay type: in vitro ADME; details: 500 µM in freshly isolated mouse blood, 37 °C; plasma and cell lysates
Experimental: Toxicity of compounds 5 and 7 was evaluated in vitro on the U-87 cell line. Briefly, U-87 cells were seeded in 96-well plates (cat. No. 92096, TPP Techno Plastic Products, Trasadingen, Switzerland) at 2000 cells/well in DMEM FluoroBrite containing 10% FBS and incubated for 24 h. Cells were washed and further grown in DMEM FluoroBrite with 5% KnockOut™ Serum Replacement (Gibco, Waltham, MA, USA). Compounds 5 and 7 were added to the wells in a 1:2 dilution series starting at 20 µM and ending at 0.16 µM. To evaluate the effect of the compound on cell growth, confluence was determined every hour for 17h using the Incucyte® S3 Live-Cell Analysis System (Sartorius, Göttingen, Germany). Next, cells were stained with the LIVE/DEAD™ Viability/Cytotoxicity Kit for mammalian cells (Invitrogen, Carlsbad, CA, USA; cat. # L3224) and cell viability was evaluated. Data were normalized to the mean confluence of wells containing no inhibitors. To measure the stability of the compounds, fresh blood was collected from heathy mice by cardiac puncture with a heparin-coated needle and syringe and 30UI/mL heparin was added. Next, compound 5, compound 7 or vehicle (DMSO) was added to the blood at a final concentration of 500 µM and incubated at 37 °C. […] Background inhibition was subtracted and results were expressed as percentage inhibition.

**Q.** For `CC(C)[C@H](C(=O)O)N(CCNC(=O)c1ccccc1)S(=O)(=O)c1ccc(-c2ccccc2)cc1` [Compound 5], which IC50 (MMP-2) is on record?
**A.** 1030 nM

**Q.** And the “ex vivo stability: remaining MMP-9 inhibitory activity” value [1]?
**A.** remained detectable up to 24h later

**Q.** Which IC50 (MMP-2) does the source give for `CC(C)[C@H](C(=O)O)N(CCNC(=O)c1cccc(C(=O)NCCN([C@@H](C(=O)O)C(C)C)S(=O)(=O)c2ccc(-c3ccccc3)cc2)c1)S(=O)(=O)c1ccc(-c2ccccc2)cc1` [Compound 7] here?
**A.** ~5 nM and 5 nM

**Q.** What about the “ex vivo stability: remaining MMP-9 inhibitory activity” value [1] of the same molecule?
**A.** remained detectable up to 24h later
